Target: Bromodomain-containing protein 4 (Homo sapiens, UniProt O60885)
Assay: Inhibition of BRD4(1) (unknown origin) by Alpha screen binding assay

| Compound | IC50 |
| --- | --- |
| C[S+](C)[O-] [DIMETHYL SULFOXIDE] | 280 mM |
| CNC(=O)[C@H](CCCCNC(C)=O)NC | 7 mM |
